The data set is described as follows: GSH human adduct formation in vitro. As to conditions: relative to control. Also on record: key: NF = in vitro no significant adduct formation relative to control. It is filed as in vitro ADME.

SMILES strings stand for the structures.

Consider `C[C@]1(c2cc(NC(=O)c3ncc(C(F)(F)F)cc3Cl)ccc2F)N=C(N)OCC1(F)F` [Example 5, 3-Chloro-5-trifluoromethyl-pyridine-2-carboxylic acid [3-((R)-2-amino-5,5-difluoro-4-methyl-5,6-dihydro-4H-[1,3]oxazin-4-yl)-4-fluoro-phenyl]-amide], for which the “GSH human, adduct formation” value is recorded as “NF”.

Values taken from patent US8389513B2, “2-amino-5,5-difluoro-5,6-dihydro-4H-[1,3]oxazin-4-yl)-phenyl]-amides” (Hoffmann-La Roche Inc., priority 2009, dated 2013).
